Values of other authors in patent US9884844B2 (priority 2012, dated 2018).

Details: rather increase it at high dose

## O=C1NCN(c2ccccc2)C12CCN([C@@H]1CC[C@H]3CCCc4cccc1c43)CC2 [Ro64-6198]
  effect on alcohol drinking: failed to decrease alcohol drinking
